Our source for the IC50 and Activity values is ChEMBL document CHEMBL1151752, “Synthesis and structure-activity relationships of 2-amino-1-aroylnaphthalene and 2-hydroxy-1-aroylnaphthalenes as potent antitubulin agents” (J Med Chem, 2008).

In assay [1] the test system is KB. The assay can be described thus: Growth inhibition of human KB cells after 72 hrs by methylene blue dye assay. The class given is functional, cell-based.
For assay [2], the system named is KB. The assay can be described thus: Growth inhibition of human Pgp170 overexpressing multidrug resistant-KB-VIN10 cells after 72 hrs by methylene blue dye assay. It is filed as functional, cell-based.
The next assay relates to HT-29. Put plainly: Growth inhibition of human HT-29 cells after 72 hrs by methylene blue dye assay. The class given is functional, cell-based. As to conditions: HT-29, 72 h.
Another assay concerns NCI-H460. The assay can be described thus: Growth inhibition of human H460 cells after 72 hrs by methylene blue dye assay. As to conditions: NCI-H460, 72 h. The class given is functional, cell-based.
The subject of the next assay is MKN-45. Put plainly: Growth inhibition of human MKN45 cells after 72 hrs by methylene blue dye assay. As to conditions: MKN-45, 72 h. It is filed as functional, cell-based.
Assay [3] in a line: Inhibition of tubulin polymerization after 30 mins.
Assay [4] in a line: Growth inhibition of human fibroblast Detrot 551 cells after 72 hrs by methylene blue dye assay. It is filed as cell-based. As to conditions: Detrot 551, 72 h.
Assay [5] relates to KB. The assay can be described thus: Growth inhibition of human KB-7D cells overexpressing multidrug resistant associated protein after 72 hrs by methylene blue dye assay. It is filed as functional, cell-based.
Assay [6] deals with KB. Put plainly: Growth inhibition of human Pgp170 overexpressing multidrug resistant-KB-TAX50 cells after 72 hrs by methylene blue dye assay. The class given is functional, cell-based.
Assay [7] can be described thus: Displacement of [3H]colchicine from tubulin after 2 hrs at 5 uM. (Displacement assays read how much labelled ligand stays bound in the presence of the test substance.)

Take `COc1ccc2cc(C(=O)c3cc(OC)c(OC)c(OC)c3)ccc2c1`: the IC50 (usually the concentration that gives 50% inhibition) was found to be 510 nM in the assay on KB [1]; 530 nM in the assay with KB [2]; 548 nM with HT-29; 716 nM in the assay on NCI-H460; 462 nM in the assay on MKN-45.
In the case of `COc1cc2c(c(OC)c1OC)-c1ccc(OC)c(=O)cc1[C@@H](NC(C)=O)CC2` [COLCHICINE], the IC50 in the assay with KB [1] was found to be 11 nM; in the assay on HT-29, 10 nM; in the assay with NCI-H460, 18 nM; in assay [3], 3200 nM.
`CCCOc1ccc2cc(OC)ccc2c1C(=O)c1cc(OC)c(OC)c(OC)c1`: the IC50 in the assay on KB [1] amounted to 2600 nM; in the assay with KB [2], 2430 nM; in the assay with HT-29, 2850 nM; with NCI-H460, 2720 nM; in the assay on MKN-45, 1760 nM.
As to `COc1ccc2c(C(=O)c3cc(OC)c(OC)c(OC)c3)c(N)ccc2c1`, the IC50 in the assay with KB [1] was 2.9 nM; in the assay on KB [2], 3.3 nM; in the assay with HT-29, 15.4 nM; with NCI-H460, 3.6 nM; in [4], more than 1000 nM; in the assay with MKN-45, 2.1 nM. Moreover, the half-inhibitory concentration (IC50) worked out at 3.5 nM with KB [5], 3.1 nM with KB [6] and 2400 nM in [3]. In assay [7], this compound came in with an Activity of 85%.
Take `COc1ccc2c(C(=O)c3cc(OC)c(OC)c(OC)c3)cccc2c1`: the IC50 in the assay on KB [1] was determined as 72.9 nM; in the assay on KB [2], 58 nM; in the assay with HT-29, 69.4 nM; in the assay with NCI-H460 it was 85.5 nM; with MKN-45, 44.1 nM; in [3], 4300 nM. The compound further came in with an Activity in assay [7] of 68%.
For `CCCc1ccc2cc(OC)ccc2c1C(=O)c1cc(OC)c(OC)c(OC)c1`, the IC50 stood at 1000 nM in the assay on KB [1]; 1100 nM in the assay on KB [2]; 1320 nM in the assay on HT-29; 987 nM in the assay with NCI-H460; 840 nM in the assay on MKN-45.
On to `COc1ccc2c(C(=O)c3cc(OC)c(OC)c(OC)c3)c(OC)ccc2c1`, for which the IC50 with KB [1] amounted to 65 nM; with KB [2], 70 nM; with HT-29 it was 144 nM; with NCI-H460 it was 84 nM; with MKN-45, 53 nM; in assay [3], 2700 nM. Besides, in [7], the Activity stood at 52%.
On to `COc1ccc2c(C(=O)c3cc(OC)c(OC)c(OC)c3)c(C)ccc2c1`, for which the IC50 in the assay with KB [1] was 276 nM; with KB [2] it was 263 nM; in the assay with HT-29 it was 412 nM; in the assay with NCI-H460, 321 nM; in the assay on MKN-45, 254 nM; in assay [3], 2900 nM. Moreover, in [7], the Activity came out at 67%.
With `COc1ccc2c(C(=O)c3cc(OC)c(OC)c(OC)c3)c[nH]c2c1`, the IC50 with KB [1] stood at 4.6 nM; in the assay on KB [2] it was 6.2 nM; in the assay on HT-29, 5.9 nM; in the assay with NCI-H460 it was 7.1 nM; in the assay on MKN-45, 3.2 nM; in assay [3], 2800 nM. The same compound registered an Activity in assay [7] of 85%.
For `CC(=O)O[C@H]1C(=O)[C@@]2(C)[C@H]([C@H](OC(=O)c3ccccc3)[C@]3(O)C[C@H](OC(=O)[C@H](O)[C@@H](NC(=O)c4ccccc4)c4ccccc4)C(C)=C1C3(C)C)[C@]1(OC(C)=O)CO[C@@H]1C[C@@H]2O` [PACLITAXEL], the IC50 in the assay on KB [1] worked out at 3.3 nM; in the assay with KB [2], 16500 nM; in the assay on KB [5] it was 7.9 nM; in the assay on KB [6], 273 nM.
As to `COc1ccc2c(C(=O)c3cc(OC)c(OC)c(OC)c3)c(O)ccc2c1`, the IC50 was 8.2 nM in the assay with KB [1]; 11 nM in the assay with KB [2]; 26.3 nM with HT-29; 12.6 nM with NCI-H460; more than 1000 nM in assay [4]; 21 nM in the assay on MKN-45. For the same compound, the figures for the IC50 (with KB [5]; in the assay with KB [6]; in assay [3]) were 16.9 nM, 15 nM and 2600 nM, respectively. Moreover, the Activity in assay [7] stood at 75%.
`CC[C@]1(O)C[C@H]2CN(CCc3c([nH]c4ccccc34)[C@@](C(=O)OC)(c3cc4c(cc3OC)N(C=O)[C@H]3[C@@](O)(C(=O)OC)[C@H](OC(C)=O)[C@]5(CC)C=CCN6CC[C@]43[C@@H]65)C2)C1` [VINCRISTINE]: the IC50 in the assay on KB [1] is 0.4 nM; in the assay with KB [2], 90.1 nM; in the assay with KB [5] it was 1.2 nM; in the assay with KB [6], 17.6 nM.
The compound `COc1ccc(/C=C\c2cc(OC)c(OC)c(OC)c2)cc1O` had an Activity in [7] of 93%.
Regarding `CNc1ccc2cc(OC)ccc2c1C(=O)c1cc(OC)c(OC)c(OC)c1`, the IC50 turned out to be 381 nM with KB [1]; 364 nM with KB [2]; 512 nM in the assay on HT-29; 416 nM in the assay with NCI-H460; 338 nM with MKN-45.
As for `COc1ccc2c(C(=O)c3cc(OC)c(OC)c(OC)c3)c(N(C)C)ccc2c1`, the IC50 in the assay with KB [1], with KB [2], with HT-29, with NCI-H460 and in the assay with MKN-45 was more than 10000 nM each time.
In the case of `COc1ccc2c(N)c(C(=O)c3cc(OC)c(OC)c(OC)c3)ccc2c1`, the IC50 in the assay with KB [1] was 8800 nM; with KB [2] it was 7910 nM; in the assay with HT-29, 9850 nM; in the assay on NCI-H460, more than 10000 nM; in the assay with MKN-45, 7430 nM; in [3], more than 10000 nM.
On to `COc1ccc2c(OC)c(C(=O)c3cc(OC)c(OC)c(OC)c3)ccc2c1`, for which the IC50 with KB [1], with KB [2], in the assay on HT-29, in the assay on NCI-H460 and in the assay on MKN-45 was more than 10000 nM in each case.
For `COc1ccc2c(O)c(C(=O)c3cc(OC)c(OC)c(OC)c3)ccc2c1`, the half-maximal inhibitory concentration (IC50) in the assay with KB [1], with KB [2], with HT-29, in the assay with NCI-H460 and in the assay with MKN-45 was more than 10000 nM each time.
In the case of `CCc1ccc2cc(OC)ccc2c1C(=O)c1cc(OC)c(OC)c(OC)c1`, the concentration for half-maximal inhibition (IC50) in the assay on KB [1] turned out to be 600 nM; with KB [2], 512 nM; in the assay on HT-29, 667 nM; in the assay with NCI-H460, 764 nM; with MKN-45 it was 320 nM.
As for `CCOc1ccc2cc(OC)ccc2c1C(=O)c1cc(OC)c(OC)c(OC)c1`, the IC50 turned out to be 1000 nM with KB [1]; 912 nM with KB [2]; 1130 nM in the assay on HT-29; 1210 nM in the assay on NCI-H460; 874 nM in the assay on MKN-45.
For `COc1cc([C@@H]2c3cc4c(cc3[C@@H](O[C@@H]3O[C@@H]5CO[C@@H](C)O[C@H]5[C@H](O)[C@H]3O)[C@H]3COC(=O)[C@H]23)OCO4)cc(OC)c1O` [ETOPOSIDE], the IC50 was 23000 nM with KB [2], 54000 nM in the assay on KB [5] and 3500 nM in the assay on KB [6].
